Laboratory results as given in article PMC8636726 (Synthetic and Systems Biotechnology, 2021).

molecular target: T1, EmbR protein (Mycobacterium tuberculosis, UniProt P9WGJ9); format: binding; conditions: BLI, clinical TB drugs tested as controls under the same conditions
T1 sequence (P9WGJ9 1-388): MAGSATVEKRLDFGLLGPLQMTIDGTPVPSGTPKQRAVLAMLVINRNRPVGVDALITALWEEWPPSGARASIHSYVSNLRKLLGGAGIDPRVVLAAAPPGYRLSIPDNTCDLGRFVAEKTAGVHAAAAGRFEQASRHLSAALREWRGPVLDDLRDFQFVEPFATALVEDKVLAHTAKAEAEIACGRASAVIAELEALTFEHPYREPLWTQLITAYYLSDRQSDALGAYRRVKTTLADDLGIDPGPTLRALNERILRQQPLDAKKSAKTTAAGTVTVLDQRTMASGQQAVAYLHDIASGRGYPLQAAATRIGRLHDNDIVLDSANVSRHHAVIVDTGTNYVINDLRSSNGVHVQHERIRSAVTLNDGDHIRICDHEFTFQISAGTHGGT

| SMILES | binding to EmbR |
| --- | --- |
| CC[C@@H](CO)NCCN[C@@H](CC)CO [EMB, Ethambutol] | no significant binding |
| NNC(=O)c1ccncc1 [INH, isoniazid] | no significant binding |
| CO[C@H]1/C=C/O[C@@]2(C)Oc3c(C)c(O)c4c(O)c(c(/C=N/N5CCN(C)CC5)c(O)c4c3C2=O)NC(=O)/C(C)=C\C=C\[C@H](C)[C@H](O)[C@@H](C)[C@@H](O)[C@@H](C)[C@H](OC(C)=O)[C@@H]1C [RIF, rifampicin] | no significant binding |
